How the values were obtained:
[1] = system: FaDu subcutaneous xenograft; test: FaDu subcutaneous xenograft in combination with cetuximab, single dose (FIG. 16); assay type: in vivo, athymic mice; settings: single dose Day 1
Protocol: A human squamous cell carcinoma of the head and neck (SCCHN) cell line FaDu, which had been cultured in an RPMI-1640 medium containing 10% FBS, and penicillin-streptomycin, was adjusted to a concentration of 5×10^7 cells/mL with Hanks' Balanced Salt Solution to prepare a cell suspension. The cell suspension was inoculated in a volume of 100 μL into a subcutaneous part of a right flank of athymic mice (CAnN.Cg-Foxnlnu/CrlCrlj, female, 7 weeks old, Charles River Japan Inc.). Ten days after cell inoculation (Day 1), the length and the width of a tumor in each mouse were measured by using an electronic digital caliper (Mitutoyo Corporation), so as to calculate the volume of the tumor in accordance with the following calculation formula: […]
On the basis of TV, the mice were randomly grouped (Day 1). Each group was consisted in six mice. Compound (1) was dissolved in DMSO and a solution was stored in the freezer before use.

[2] = system: human bladder carcinoma cell line RT4; test: Bladder carcinoma cell line growth inhibition assay, RT4; assay type: cell-based; settings: 72 h, 3 days incubation, CellTiter-Glo 2.0
Protocol: In this assay, the growth inhibitory activity of Compound (1) in human bladder carcinoma cell lines RT4, RT112/84, and UM-UC-3 was measured. RT4 and RT112/84 cells were maintained in a RPMI-1640 (FUJIFILM Wako Pure Chemical Corporation, 189-02025) medium containing 10% fetal bovine serum (FBS: SIGMA Life Science, 172012-500ML), and penicillin and streptomycin (FUJIFILM Wako Pure Chemical Corporation, 168-23191) in a 5% CO2 incubator (37° C.). UM-UC-3 cells were maintained in an E-MEM (FUJIFILM Wako Pure Chemical Corporation, 051-07615) medium containing 10% FBS, 1 mM Sodium Pyruvate (FUJIFILM Wako Pure Chemical Corporation, 190-14881), and penicillin and streptomycin in a 5% CO2 incubator (37° C.). To each well of a 96 well plate (Coming, 3904), 90 μL of each cell suspension adjusted to a concentration of 5.55×10^3 cells/mL (RT4 or UM-UC-3) or 3.33×10^4 cells/mL (RT112/84) with the culture medium was added, and the cells were incubated overnight in a 5% CO2 incubator (37° C.). On the next day, 10 μL of Compound (1) in three-fold dilution series suspended in the culture medium was added to each well, and the resultant was incubated for 3 days in a 5% CO2incubator (37° C.). Then, cell viability was determined by CellTiter-Glo® 2.0 Assay (Promega Corporation, G9243) with ARVO-X4 Multimode Plate Reader (Perkin-Elmer, Wellesley, MA). […]

[3] = system: KPL-4 subcutaneous xenograft; test: KPL-4 xenograft model as monotherapy (FIG. 12); assay type: in vivo, nude mice
Protocol: A human HER-2 positive breast cancer cell line KPL-4, which had been cultured in a DMEM containing 10% FBS, and penicillin-streptomycin, was adjusted to a concentration of 1×10^8 cells/mL with Hanks' Balanced Salt Solution to prepare a cell suspension. The cell suspension was inoculated in a volume of 100 μL into a subcutaneous part of a right flank of nude mice, 8 weeks of ages (CAnN.Cg-Foxnlnu/CrlCrlj, female, Charles River Laboratories Japan Inc.). Eleven days after cell inoculation (Day 1), the shortest diameter and the longest diameter of a tumor in each mouse were measured by using an electronic digital caliper (Digimatic™ caliper, Mitutoyo Corporation), so as to calculate the volume of the tumor in accordance with the following calculation formulae: […]
On the basis of the volumes of tumors obtained on Day 1, the mice were grouped such that averages of the tumor volumes were substantially equal among the groups. The experiment was conducted on groups each consisting of six mice. The test compound was dissolved in DMSO and a solution was stored in the freezer before use. Immediately before the administration, the stock solution was diluted with saline. The test compound in saline was intravenously once-weekly administered at 20 μg/kg, 60 μg/kg, or 180 μg/kg for 2 weeks (on Day 1 and Day 8).

[4] = system: OE21, OE33, TE-8, MES-SA, MES-SA/Dx5-RX1 cell lines; test: In vitro antiproliferative activity, esophageal and uterine cancer cell panel (FIG. 11); assay type: cell-based, human; settings: 72 hours, CellTiter-Glo; values only in FIG. 11
Protocol: The in vitro antiproliferative assays for Compound (1) were conducted using a small panel of cancer cell lines including human squamous cell carcinoma of the esophagus (OE21, TE-8), human […] of the esophagus (OE33), and human uterine sarcoma (MES-SA, MES-SA-Dx5-R^X1). All cell lines were cultured in RPMI-1640 medium containing 10% FBS, and penicillin-streptomycin (culture medium), in a 5% CO2 incubator (37° C.). To each well of a 96 well plate (Becton, Dickinson and Company, 353219), 75 μL of cell suspension adjusted to a concentration of 4×10^4 cells/mL with the culture medium was added, and the cells were incubated overnight in a 5% CO2 incubator (37° C.). On the next day, 25 μL of Compound (1) in three-fold dilution series suspended in the culture medium was added to each well, and the resultant was incubated for 72 hours in a 5% CO2 incubator (37° C.). Then, cell viability was determined by CellTiter-Glo® Luminescent Cell Viability Assay (Promega) with 2013 EnVision™ Multilabel Reader (Perkin-Elmer, Wellesley, MA). Value of the wells containing cells without adding the test compounds was defined as 100% and the value of the wells containing no cells was defined as 0%. […] The P-gp susceptibility was calculated as the ratio of the IC50 value in MES-SA-Dx5-R^X1 cells, which overexpress P-gp, to the IC50 value in MES-SA cells.

Q: For `C=C1C[C@@H]2CC[C@@]34C[C@H]5O[C@H]6[C@@H](O3)[C@H]3O[C@H](CC[C@@H]3O[C@H]6C5O4)CC(=O)O[C@@H]3[C@@H](C)[C@@H]4O[C@@H]5C[C@]6(C[C@@H]7O[C@]8(C[C@H](C)[C@@H]9O[C@H](CN)[C@H](O)C[C@@H]9O8)C[C@H](C)[C@@H]7O6)O[C@@H]5C[C@@H]4O[C@H]3C[C@H]3O[C@@H](CC[C@@H]1O2)C[C@@H](C)C3=C` (stereo in doubt) [Compound (1)], which “antitumor efficacy with CTX” value ([1]; 20 μg/kg + cetuximab 10 mg/kg) is on record?
A: The value was “tended to be stronger than that of CTX monotherapy”.

Q: And the “antitumor efficacy with CTX” value ([1]; 180 μg/kg and 60 μg/kg + cetuximab 10 mg/kg)?
A: The value was “stronger than that of CTX monotherapy with tumor regression”.

Q: And the IC50 [2]?
A: Its IC50 is 0.11 nM.

Q: What about the antitumor effect ([3]; 60 μg/kg i.v. Day 1 and Day 8) of the same molecule?
A: The antitumor effect was “tumor regression”.

Q: What about the antitumor effect ([3]; 180 μg/kg i.v. Day 1 and Day 8) of the same molecule?
A: Its antitumor effect is “tumor regression”.

Q: And the “xenograft tumors on Day 15” value ([3]; 180 μg/kg i.v. Day 1 and Day 8)?
A: The value was “completely eradicated the xenograft tumors in all mice”.

Q: And the antiproliferative activity [4]?
A: Its antiproliferative activity is “potent antiproliferative agent”.

From patent US20240309014A1, “MACROCYCLIC COMPOUNDS AND USES THEREOF” (President and Fellows of Harvard College, priority 2017, published 2024)
